# Experimental data as given in patent CN111909135A, “一种azd9291氘代物甲磺酸盐新盐型及其制备方法” (Tianjin University, priority 2020, dated 2020).
# Key:
# [1] = Water solubility of the crystal form at 25℃ (Chinese Pharmacopoeia 2015, part IV); format: physicochemical
# [2] = Crystal form stability, high temperature (60℃) and accelerated (40℃, RH75%) tests; format: physicochemical
compound,measurement,setting,value
C=CC(=O)Nc1cc(Nc2nccc(-c3cn(C)c4ccccc34)n2)c(OC)cc1N(C)CCN(C)C [AZD9291氘代物甲磺酸盐新盐型],increase in solubility relative to AZD9291 deuterated compound mesylate (WO2018214886A1 and CN201810495698.7),[1],3 fold
same,crystal form transformation (XRD),"[2]; 40℃, RH75%, accelerated stability, 0, 5 and 10 days",未发生 晶型转变
same,"appearance, colour and crystal form change","[2]; high temperature (60℃, humidity not limited) and accelerated (40℃, RH75%), 5 and 10 days",外观色泽及晶 型均无变化
